Reference: patent US10485235B2, “Aryloxypyrimidinyl ethers as herbicides” (FMC Corporation, priority 2015, dated 2019)

Assays:
Assay type in all cases: in vivo
[1] = system: barnyardgrass (Echinochloa crus-galli); test: Test A preemergence, barnyardgrass; settings: Preemergence, 0 to 100 scale (0 no effect, 100 complete control)
Method in brief: (§1)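 For postemergence, one- to two-leaf plants 2–10 cm tall were sprayed; for preemergence, seeded loam–sand soil got a directed spray. Both used compound in a non-phytotoxic, surfactant-containing solvent, with visual injury ratings (0–100) after roughly 10 greenhouse days.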

kochia (Kochia scoparia) [2] = test: Test A preemergence, kochia; settings: Preemergence, 0 to 100 scale (0 no effect, 100 complete control)
Method in brief: as §1

[3] = system: ragweed (common ragweed, Ambrosia elatior); test: Test A preemergence, ragweed; settings: Preemergence, 0 to 100 scale (0 no effect, 100 complete control)
Method in brief: as §1

[4] = system: ryegrass, Italian (Italian ryegrass, Lolium multiflorum); test: Test A preemergence, Italian ryegrass; settings: Preemergence, 0 to 100 scale (0 no effect, 100 complete control)
Method in brief: as §1

[5] = system: foxtail, giant (giant foxtail, Setaria faberii); test: Test A preemergence, giant foxtail; settings: Preemergence, 0 to 100 scale (0 no effect, 100 complete control)
Method in brief: as §1

[6] = system: pigweed (Amaranthus retroflexus); test: Test A preemergence, pigweed; settings: Preemergence, 0 to 100 scale (0 no effect, 100 complete control)
Method in brief: as §1

[7] = system: barnyardgrass (Echinochloa crus-galli); test: Test A postemergence, barnyardgrass; settings: postemergence, 0 to 100 scale, 0 is no effect, 100 is complete control, approximately 10 days
Method in brief: as §1

kochia (Kochia scoparia) [8] = test: Test A postemergence, kochia; settings: postemergence, 0 to 100 scale, 0 is no effect, 100 is complete control, approximately 10 days
Method in brief: as §1

[9] = system: ragweed (common ragweed, Ambrosia elatior); test: Test A postemergence, ragweed; settings: postemergence, 0 to 100 scale, 0 is no effect, 100 is complete control, approximately 10 days
Method in brief: as §1

[10] = system: ryegrass, Italian (Italian ryegrass, Lolium multiflorum); test: Test A postemergence, Italian ryegrass; settings: postemergence, 0 to 100 scale, 0 is no effect, 100 is complete control, approximately 10 days
Method in brief: as §1

[11] = system: foxtail, giant (giant foxtail, Setaria faberii); test: Test A postemergence, giant foxtail; settings: postemergence, 0 to 100 scale, 0 is no effect, 100 is complete control, approximately 10 days
Method in brief: as §1

[12] = system: pigweed (Amaranthus retroflexus); test: Test A postemergence, pigweed; settings: postemergence, 0 to 100 scale, 0 is no effect, 100 is complete control, approximately 10 days
Method in brief: as §1

[13] = system: wheat (Triticum aestivum); test: Test A postemergence, wheat; settings: postemergence, 0 to 100 scale, 0 is no effect, 100 is complete control, approximately 10 days
Method in brief: as §1

corn (Zea mays) = test: Test A postemergence, corn; settings: postemergence, 0 to 100 scale, 0 is no effect, 100 is complete control, approximately 10 days
Method in brief: as §1

[14] = system: blackgrass (Alopecurus myosuroides); test: Test A postemergence, blackgrass; settings: postemergence, 0 to 100 scale, 0 is no effect, 100 is complete control, approximately 10 days
Method in brief: as §1

[15] = system: galium (catchweed bedstraw, Galium aparine); test: Test A postemergence, galium; settings: postemergence, 0 to 100 scale, 0 is no effect, 100 is complete control, approximately 10 days
Method in brief: as §1

rice (Oryza sativa) = test: Test B flooded paddy test, rice; settings: 250 g ai/ha, Flood; visual rating after 13 to 15 days; scale 0 to 100, 0 is no effect, 100 is complete control
Method in brief: (§2)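 Plants grown to the 2-leaf stage; pots flooded to 3 cm above soil and compounds applied directly into the paddy water, depth held throughout. After 13 to 15 days in the greenhouse, injury was rated visually against untreated controls on a 0–100 scale (0 no effect, 100 complete control).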

[16] = system: sedge, umbrella (small-flower umbrella sedge, Cyperus difformis); test: Test B flooded paddy test, umbrella sedge; settings: 250 g ai/ha, Flood; visual rating after 13 to 15 days; scale 0 to 100, 0 is no effect, 100 is complete control
Method in brief: as §2

[17] = system: ducksalad (Heteranthera limosa); test: Test B flooded paddy test, ducksalad; settings: 250 g ai/ha, Flood; visual rating after 13 to 15 days; scale 0 to 100, 0 is no effect, 100 is complete control
Method in brief: as §2

[18] = system: barnyardgrass (Echinochloa crus-galli); test: Test B flooded paddy test, barnyardgrass; settings: 250 g ai/ha, Flood; visual rating after 13 to 15 days; scale 0 to 100, 0 is no effect, 100 is complete control
Method in brief: as §2

| SMILES | Plant response rating, Barnyardgrass ([1]; 31 g ai/ha) | Plant response rating, Barnyardgrass ([1]; 125 g ai/ha) | Plant response rating, Kochia (kochia (Kochia scoparia) [2]; 31 g ai/ha) | Plant response rating, Kochia (kochia (Kochia scoparia) [2]; 125 g ai/ha) | Plant response rating, Ragweed ([3]; 31 g ai/ha) | Plant response rating, Ragweed ([3]; 125 g ai/ha) | Plant response rating, Ryegrass, Italian ([4]; 31 g ai/ha) | Plant response rating, Ryegrass, Italian ([4]; 125 g ai/ha) | Plant response rating, Foxtail, Giant ([5]; 31 g ai/ha) | Plant response rating, Foxtail, Giant ([5]; 125 g ai/ha) | Plant response rating, Pigweed ([6]; 31 g ai/ha) | Plant response rating, Pigweed ([6]; 125 g ai/ha) | Plant response rating, Barnyardgrass ([7]; 31 g ai/ha) | Plant response rating, Barnyardgrass ([7]; 125 g ai/ha) | Plant response rating, Kochia (kochia (Kochia scoparia) [8]; 31 g ai/ha) | Plant response rating, Kochia (kochia (Kochia scoparia) [8]; 125 g ai/ha) | Plant response rating, Ragweed ([9]; 31 g ai/ha) | Plant response rating, Ragweed ([9]; 125 g ai/ha) | Plant response rating, Ryegrass, Italian ([10]; 31 g ai/ha) | Plant response rating, Ryegrass, Italian ([10]; 125 g ai/ha) | other results |
| --- | --- | --- | --- | --- | --- | --- | --- | --- | --- | --- | --- | --- | --- | --- | --- | --- | --- | --- | --- | --- | --- |
| N#Cc1cccc(Oc2ncc(F)cn2)c1OCCCF [Compound 30] | 0 | 20 | 90 | 90 | 20 | 30 | 0 | 20 | 10 | 30 | 50 | 80 | 0 | 10 | 0 | 10 | 0 | 10 | 30 | 40 | Plant response rating, Foxtail, Giant ([11]; 31 g ai/ha): 0; Plant response rating, Foxtail, Giant ([11]; 125 g ai/ha): 0; Plant response rating, Pigweed ([12]; 31 g ai/ha): 0; Plant response rating, Pigweed ([12]; 125 g ai/ha): 0; Plant response rating, Wheat ([13]; 31 g ai/ha): 0; Plant response rating, Wheat ([13]; 125 g ai/ha): 0; Plant response rating, Corn (corn (Zea mays); 31 g ai/ha): 0; Plant response rating, Corn (corn (Zea mays); 125 g ai/ha): 0; Plant response rating, Blackgrass ([14]; 31 g ai/ha): 0; Plant response rating, Blackgrass ([14]; 125 g ai/ha): 0; Plant response rating, Galium ([15]; 31 g ai/ha): 0; Plant response rating, Galium ([15]; 125 g ai/ha): 0; Plant response rating, Rice (rice (Oryza sativa)): 0; Plant response rating, Sedge, Umbrella [16]: 40; Plant response rating, Ducksalad [17]: 30; Plant response rating, Barnyardgrass [18]: 0 |
| FC(F)(F)CCCOc1c(Br)cccc1Oc1ncc(Cl)cn1 [Compound 31] | 10 | 60 | 0 | 70 | 0 | 10 | 0 | 40 | 40 | 100 | 70 | 100 | 20 | 70 | 90 | 100 | 0 | 10 | 10 | 50 | Plant response rating, Foxtail, Giant ([11]; 31 g ai/ha): 20; Plant response rating, Foxtail, Giant ([11]; 125 g ai/ha): 50; Plant response rating, Pigweed ([12]; 31 g ai/ha): 80; Plant response rating, Pigweed ([12]; 125 g ai/ha): 100; Plant response rating, Wheat ([13]; 31 g ai/ha): 0; Plant response rating, Wheat ([13]; 125 g ai/ha): 10; Plant response rating, Corn (corn (Zea mays); 31 g ai/ha): 10; Plant response rating, Corn (corn (Zea mays); 125 g ai/ha): 20; Plant response rating, Blackgrass ([14]; 31 g ai/ha): 20; Plant response rating, Blackgrass ([14]; 125 g ai/ha): 40; Plant response rating, Galium ([15]; 31 g ai/ha): 40; Plant response rating, Galium ([15]; 125 g ai/ha): 90; Plant response rating, Rice (rice (Oryza sativa)): 25; Plant response rating, Sedge, Umbrella [16]: 100; Plant response rating, Ducksalad [17]: 75; Plant response rating, Barnyardgrass [18]: 25 |
| N#Cc1cccc(Oc2ncc(Cl)cn2)c1OCCCCC(F)(F)F [Compound 32] | 30 | 100 | 30 | 90 | 0 | 10 | 10 | 30 | 100 | 100 | 100 | 100 | 60 | 100 | 100 | 100 | 10 | 10 | 10 | 30 | Plant response rating, Foxtail, Giant ([11]; 31 g ai/ha): 50; Plant response rating, Foxtail, Giant ([11]; 125 g ai/ha): 80; Plant response rating, Pigweed ([12]; 31 g ai/ha): 100; Plant response rating, Pigweed ([12]; 125 g ai/ha): 100; Plant response rating, Wheat ([13]; 31 g ai/ha): 20; Plant response rating, Wheat ([13]; 125 g ai/ha): 30; Plant response rating, Corn (corn (Zea mays); 31 g ai/ha): 10; Plant response rating, Corn (corn (Zea mays); 125 g ai/ha): 20; Plant response rating, Blackgrass ([14]; 31 g ai/ha): 30; Plant response rating, Blackgrass ([14]; 125 g ai/ha): 50; Plant response rating, Galium ([15]; 31 g ai/ha): 70; Plant response rating, Galium ([15]; 125 g ai/ha): 100; Plant response rating, Rice (rice (Oryza sativa)): 40; Plant response rating, Sedge, Umbrella [16]: 100; Plant response rating, Ducksalad [17]: 90; Plant response rating, Barnyardgrass [18]: 30 |
